We go through 15 molecules from ChEMBL document CHEMBL1201862, “PubChem BioAssay data set” (2004).

Assay in all cases: growth of human tumour cells (NCI), 48 h
The test system of test [1] is COLO 205.
The subject of test [2] is RXF 393.
Test [3] relates to HCT-116.
Test [4] relates to NCI-H23.
Test [5] has as its system TK-10.
Test [6] deals with OVCAR-8.
Test [7] has as its system UACC-62.
Test [8] relates to UO-31.
The test system of test [9] is A498.
Test [10] deals with ACHN.
The test system of test [11] is MOLT-4.
The subject of test [12] is Malme-3M.
The test system of test [13] is NCI-H522.
Test [14] relates to HOP-92.
For test [15], the system named is IGROV-1.

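A five-concentration, 48-hour dose response in 96-well plates underlies each endpoint, interpolated linearly between surrounding concentrations. Here, GI50 denotes the concentration required for 50% inhibition of growth.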 Activity calls are given as the source filed them. Rule as the data show it: active = GI50 up to about 1.1 µM and inactive = higher.

Regarding `Cn1cc/c(=N\N=c2/ccn(C)c3ccccc23)c2ccccc21`, the GI50 in test [1] is 10.4 µM (inactive); in [2], 14.3 µM (inactive); in test [3], 11.1 µM (inactive); in [4] it was 13.2 µM (inactive); in test [5], 19.1 µM (inactive); in test [6], 14.9 µM (inactive). Also, the GI50 in [7] was 16.2 µM (inactive); in [8], 13.2 µM (inactive); in [9], 18.5 µM (inactive); in test [10] it was 13.9 µM (inactive); in test [11] it was 27.1 µM (inactive); in test [12] it was 17.2 µM (inactive). Besides, in [13], the GI50 is 14.6 µM (inactive).

For `CCOC(=O)C(C)c1c(C(=O)c2ccc(C)nc2)c2ccccc2n1C` (centres undefined), the GI50 in test [1], in test [2], in [4], in [5], in [6] and in test [7] was > 100 µM (inactive) each time. Besides, the GI50 in test [14] was 82.8 µM (inactive); in test [10] it was > 100 µM (inactive); in [15], > 100 µM (inactive); in [11], > 100 µM (inactive); in [12] it was > 100 µM (inactive); in [13] it was 79.6 µM (inactive).

`CN(C)CCSc1cccc(-c2cc(-c3cccc(SCCN(C)C)c3)nc(SCCN(C)C)n2)c1`: the GI50 is 1.35 µM (inactive) in test [2]; 1.17 µM (inactive) in [3]; 4.49 µM (inactive) in test [4]; 2.88 µM (inactive) in test [5]; 1.42 µM (inactive) in test [6]; 17.5 µM (inactive) in test [7]. The GI50 is 0.551 µM (active) in [14]; 12.8 µM (inactive) in test [8]; 5.77 µM (inactive) in test [10]; 3.37 µM (inactive) in [15]; 1.63 µM (inactive) in [11]; 1.87 µM (inactive) in [12]. Moreover, the GI50 in test [13] is 1.61 µM (inactive).

For `O=C(c1ccccc1)[C@H]1Nc2ccc(Cl)cc2[C@H]2CCC[C@@H]12`, the GI50 is 25.1 µM (inactive) in test [1]; 14.8 µM (inactive) in [2]; 13.2 µM (inactive) in test [3]; 23.9 µM (inactive) in test [4]; 30.6 µM (inactive) in test [5]; 23.3 µM (inactive) in test [6]. The GI50 in test [7] was 25.8 µM (inactive); in [8] it was 17.8 µM (inactive); in [10] it was 13.3 µM (inactive); in test [15] it was > 100 µM (inactive); in test [11], 5.7 µM (inactive); in test [12] it was 22 µM (inactive). Also, the GI50 in test [13] is 23.3 µM (inactive).

`Cc1nc([N+](=O)[O-])cn1CC(=N)N`: the GI50 in test [1], in test [2], in [3], in test [4], in [5] and in test [6] was > 100 µM (inactive) in each case. The GI50 in [7], in [8], in test [9], in test [10], in test [15] and in [11] was > 100 µM (inactive) in each case. Also, the GI50 in test [12] was > 100 µM (inactive).

Regarding `Cc1cc(N(CCC#N)CCC#N)ccc1/N=N/c1ccc(S(N)(=O)=O)cc1`, the GI50 in test [1], in test [2], in test [4], in test [5], in test [6] and in test [7] was > 100 µM (inactive) each time. The GI50 in test [8] is 85.5 µM (inactive); in [9], > 100 µM (inactive); in test [10], > 100 µM (inactive); in test [15] it was > 100 µM (inactive); in test [11] it was > 100 µM (inactive); in test [12], > 100 µM (inactive). For the same molecule, the GI50 in [13] was > 100 µM (inactive).

Turning to `CC(=O)N1[C@H](C(=O)O)CS[C@H]1c1ccncc1`, the GI50 in test [1] was > 100 µM (inactive); in [2], > 100 µM (inactive); in [3] it was > 100 µM (inactive); in test [4], > 100 µM (inactive); in test [5], > 100 µM (inactive); in test [6], 32.7 µM (inactive). The GI50 in [7], in test [14], in [8], in [9], in [10] and in [15] was > 100 µM (inactive) in each case. Further, the GI50 in test [11] and in [12] was > 100 µM (inactive) each time.

`Cc1ccc(S(=O)(=O)OCOS(=O)(=O)c2ccc(C)cc2)cc1`: the GI50 in test [1], in [2], in test [3], in test [4], in [5] and in test [6] was > 100 µM (inactive) throughout. Also, the GI50 in [7] was > 10 µM (inactive); in test [8] it was > 100 µM (inactive); in test [10] it was > 100 µM (inactive); in test [15], > 100 µM (inactive); in test [11], > 100 µM (inactive); in [12] it was > 100 µM (inactive). For the same molecule, the GI50 in test [13] was > 100 µM (inactive).

For the molecule `CCOC(=O)C1=C(NC)OC/C1=N\NC(=O)c1ccccc1O`, the GI50 in test [1] was > 100 µM (inactive); in test [2] it was 16.7 µM (inactive); in [3], 9.29 µM (inactive); in test [4], 6.87 µM (inactive); in test [5], > 100 µM (inactive); in [6], 24.2 µM (inactive). In addition, the GI50 in [7] is 7.03 µM (inactive); in [14], 26.1 µM (inactive); in [8], 4.83 µM (inactive); in test [9], > 100 µM (inactive); in [15], 7.21 µM (inactive); in test [11], 22.9 µM (inactive). Moreover, the results for the GI50 in [12] and in [13] were 26.9 µM (inactive) and 9.31 µM (inactive), respectively.

As to `CCOc1ccccc1NC(=O)C(C#N)C1=C(Cl)C(=O)c2ccccc2C1=O` (centres undefined), the GI50 in test [1] is 1.98 µM (inactive); in test [2], 1.97 µM (inactive); in test [3], 1.95 µM (inactive); in [4], 2.14 µM (inactive); in test [5] it was 2.22 µM (inactive); in test [6] it was 0.792 µM (active). In addition, the GI50 is 1.83 µM (inactive) in test [7]; 2.05 µM (inactive) in test [14]; 1.73 µM (inactive) in test [8]; 19.8 µM (inactive) in test [9]; 1.79 µM (inactive) in test [10]; 2.13 µM (inactive) in test [15]. Besides, the GI50 in test [11] was 1.17 µM (inactive); in [12] it was 1.57 µM (inactive); in test [13] it was 2.09 µM (inactive).

Turning to `NC(=O)/C(=N\NC(=O)c1cc2ccccc2cc1O)C1C(=O)N(c2ccccc2)N=C1N` (centres undefined), the GI50 in test [1] was 28.8 µM (inactive); in [2], 29.3 µM (inactive); in test [3], 27.2 µM (inactive); in [4], 20.3 µM (inactive); in [5], > 100 µM (inactive); in [6] it was 26.3 µM (inactive). For the same molecule, the GI50 in test [7] was 15.2 µM (inactive); in [14], 22.3 µM (inactive); in test [8], 7.73 µM (inactive); in test [9], 1.23 µM (inactive); in test [10] it was 29.9 µM (inactive); in test [15] it was 21.1 µM (inactive). For the same molecule, the GI50 in test [11] is 21.4 µM (inactive); in test [12], 58.7 µM (inactive).

In the case of `CCOC(=O)Cc1ccc2c(c1O)C(=O)c1c(ccc(CC(=O)OCC)c1O)C2=O`, the GI50 was > 100 µM (inactive) in test [1]; 33 µM (inactive) in [2]; > 100 µM (inactive) in test [3]; > 100 µM (inactive) in test [4]; 31.9 µM (inactive) in test [5]; > 100 µM (inactive) in [6]. Further, the GI50 in test [7] was > 100 µM (inactive); in test [14], > 100 µM (inactive); in [8], > 100 µM (inactive); in test [9], > 100 µM (inactive); in [10], > 100 µM (inactive); in test [11], 87.9 µM (inactive). The GI50 was 30.1 µM (inactive) in test [12] and > 100 µM (inactive) in test [13].

`S=P1(c2ccccc2)Nc2ccc(Cl)cc2N1` (centres undefined): the GI50 was 19.9 µM (inactive) in test [1]; > 100 µM (inactive) in test [4]; > 100 µM (inactive) in test [5]; 8.09 µM (inactive) in test [7]; 20.2 µM (inactive) in test [14]; 56.4 µM (inactive) in test [8]. The GI50 in [9] is > 100 µM (inactive); in test [10], 89.1 µM (inactive); in test [15] it was 35.5 µM (inactive); in test [11], 20 µM (inactive); in test [12], > 100 µM (inactive); in test [13], 36.5 µM (inactive).

Take `Cc1[nH]c2ccccc2c1C1CC(=O)NC1=O` (centres undefined): the GI50 in test [2], in test [3], in test [4], in test [5], in test [6] and in test [7] was > 100 µM (inactive) each time. In addition, the GI50 in test [8], in test [9], in [10], in test [15], in test [11] and in test [12] was > 100 µM (inactive) in each case.

Consider `COc1cccc(NC(=O)CC(=O)N2N=C(N3c4ccccc4Sc4ccccc43)CC2c2ccccc2)c1` (centres undefined), for which the GI50 in test [1], in test [2], in test [3], in test [4], in [5] and in test [6] was > 100 µM (inactive) each time. Besides, the GI50 in [7], in test [14], in test [8], in test [9], in [10] and in [15] was > 100 µM (inactive) throughout. Also, the GI50 in [11] and in test [12] was > 100 µM (inactive) in each case.
